Measurements reported in patent publication US5051419A, “Prevention or elimination of mycoplasma contamination of animal or plant cell cultures” (Dainippon Pharmaceutical Co., Ltd., priority 1988, dated 1991).
Converted amounts (≈) assume the structure as drawn.

Tests used:
M. salivarium PG20 = test: Anti-mycoplasmal activity (MIC), agar-dilution method; type: cell-based, Mycoplasma salivarium; settings: Metamycoplasma salivarium; agar dilution; M. salivarium PG20; read-out: MIC
Method: (§1) The minimum growth inhibitory concentrations (MIC; μg/ml) of the test chemicals were measured by the agar-dilution method.
(§2) (1) Preparation of a mycoplasma suspension for inoculation
(§3) A stored frozen suspension of mycoplasma (0.2 to 0.3 ml) was inoculated in 2 to 3 ml of a preculture medium to be described later. It was serially diluted tenfold until the dilution ratio reached 10,000 times. These diluted solutions were cultivated at 37° C. for 2 to 7 days. A culture having the highest dilution ratio was selected from those cultures in which a color change of the media was noted as a result of mycoplasma growth. It was diluted to 100 times with the preculture medium to prepare a mycoplasma suspension for inoculation.
(§4) The following preculture media were used.
For other mycoplasma species, Chanock liquid medium (pH 6.8) containing 0.2% arginine was used.
(§5) (2) Preparation of agar plates containing the test chemicals
(§6) A 1,000 μg/ml aqueous solution of each test chemical was prepared (a difficultly-soluble chemical was dissolved by adding an equimolar amount of sodium hydroxide; the same applies hereinafter). The solution was used as a base solution and its twofold serial dilutions were prepared. The diluted solutions were pipetted on plastic petri dishes each in an amount of 1 ml. The Chanock agar medium (for Mycoplasma hyorhinis, 0.5% mucin was further added) described at page 9 of the above cited "Procedures for Isolation and Identification of Human, Animal and Plant Mycoplasmas" was heated and kept at 55° C. and put in an amount of 9 ml in each of the petri dishes containing the test chemicals and fully mixed with the test chemicals to prepare agar plates containing the test chemicals.
(§7) The mycoplasma suspension for inoculation prepared by the procedure described in section (1) was inoculated in an amount of about 3 microliters on each of the chemical-containing agar plates by means of a Cathra-replicator (3 mm pin). The plates on which Mycoplasma pneumoniae, Mycoplasma arginini, and Acholeplasma laidlawii and Mycoplasma hyorhinis were inoculated were tightly packed in a plastic bag together with the plasic petri dishes including water-immersed absorbent cotton. Mycoplasma pneumoniae was aerobically cultivated at 37° C. under highly humid conditions for 7 days; and Mycoplasma arginini and Acholeplasma laidlawii, for 2 days. The other mycoplasma species were cultivated anaerobically for 2 days by using a GasPak anaerobic system (BBL). After the cultivation, growth of mycoplasma were observed under an OLYMPUS microscope (20-100 X). The lowest concentration of the test chemical at which no growth of mycoplasma was noted is defined as MIC.

mycoplasma [1] = test: Activity of eliminating artificially contaminated mycoplasma from L-929 cells, Test Example 3 as a whole; type: cell-based; settings: for minimal effective concentration: Mycoplasma, L929, 96 h, L-929 cells, 4 days of treatment, read-out: effective concentration for eliminating mycoplasma contamination
Method: Animal cells, experimentally contaminated by mycoplasma, were cultivated for 4 days in a medium containing the test chemical and then sub-cultivated in a medium to which the test chemical was not added in order to determine whether the mycoplasma re-grew (re-contamination).
(1) Preparation of mycoplasma-contaminated cells
The mycoplasmas described in Table 3 were each pre-cultivated as in Test Example 1, (1). Two milliliters of the cultures were centifuged at 1,500×g for 30 minutes to separate the mycoplasmas. The isolated mycoplasmas were suspended in 2 ml of 10%-FBS-MEM medium (Eagle's minimum essential medium supplemented with 10% fetal bovine serum and 100 U/ml of penicillin G).
Separately, mouse fibroblast cells L-929 was suspended in 10%-FBS-MEM medium so that their density became 2.5×10^4 /ml. Four milliliters of the suspension was put in a petri dish (diameter 6 cm) for tissue culture including two circular cover glasses (diameter 1.8 cm), and then 1 ml of the mycoplasma suspension described above was added. The mixture was incubated at 37° C. in 5% CO2 humidified atmosphere for 3 days, and then sub-cultivated twice in order to obtain mycoplasma-contaminated cells. Mycoplasma-contamination was confirmed by the highly specific DNA-fluorochromic staining method (the above cited "Procedures for Isolation and identification of Human, Animal and Plant Mycoplasmas", pages 95-97).
(2) Experiment of eliminating mycoplasma contamination
Mycoplasma-contaminated L-929 cells were cultivated as described in the preceding section. A 1,000 μg/ml aqueous solution of a test chemical was prepared, and diluted to predetermined concentrations with Eagle's minimum essential medium. The diluted solutions were added to the culture medium. Two petri dishes were used for each concentration of the test chemical, and two circular cover glasses were put in one of them for examination of mycoplasma. No cover glass was put in the other petri dish, and it was used for subcultivation. Cultivation in the test chemical-containing medium was carried out for 4 days, and thereafter, the cultivation was continued for 3 weeks in a drug-free medium. Medium replacement was effected every 3 to 4 days, and subcultivation was carried out once a week. Examination for mycoplasma contamination was performed on the 4th and 7th days, and thereafter every week. The mycoplasmas were detected by the highly specific DNA-fluorochromic staining method.

M. pnumoniae Mac = test: Anti-mycoplasmal activity (MIC), agar-dilution method; type: cell-based, Mycoplasma pneumoniae; settings: Mycoplasma; agar dilution; M. pnumoniae Mac; read-out: MIC
Method: as §1, §2, §3, §4
For Mycoplasma pneumoniae and Acholeplasma laidlawii, Chanock liquid medium containing 0.5% glucose (pH 7.8) [Library of Bacteriology 2, "Procedures for Isolation and Identification of Human, Animal and Plant Mycoplasmas", edited by Japanese Society for Bacteriology, page 8 (1982), Saikon Publishing Co.] was used.
as §5, §6, §7

mycoplasma [2] = test: Anti-mycoplasmal activity (MIC, MMC), liquid dilution method, all species of Table 2 together; type: cell-based; settings: in words
Method: The minimum growth inhibitory concentration (MIC, μg/ml) and minimum mycoplasmacidal concentration (MMC, μg/ml) of test chemicals were measured by the liquid dilution method. The method of measuring MIC in this example differs from that used in Test Example 1.
A 1,000 μg/ml aqueous solution of a test chemical was prepared, and diluted to 5 times with a preculture medium. The dilution (200 μg/ml) was serially diluted twofold with the same medium in a 8-well reservoir. Fifty microliters of each diluted solution was distributed in the wells of a microplate. A well to which no test chemical was added was used as a control.
A mycoplasma suspension for inoculation prepared as in Test Example 1 was pipetted in an amount of 50 microliters to each of the wells. The microplates were sealed by a plate seal, shaken by a micromixer, and cultivated at 37° C. for 5 days. […] At this time, 3 microliters of the liquid culture was inoculated in drug-free Chanock agar medium by using a Cathra-replicator. The liquid culture and the agar medium were further cultivated at 37° C. for 3 days (anaerobically in the case of M. orale, and aerobically in the case of A. laidlawii and M. arginini). MIC and MMC were determined from the results of observation on the 5th day. MIC was defined as the lowest concentration of the test chemical at which growth of mycoplasma in the drug-containing liquid medium was not noted, and MMC, as that in the drug-free agar medium.

M. hyorhinis BST7 = test: Anti-mycoplasmal activity (MIC), agar-dilution method; type: cell-based, Mycoplasma hyorhinis; settings: Mesomycoplasma hyorhinis; agar dilution; M. hyorhinis BST7; read-out: MIC
Method: as §1, §2, §3, §4
For Mycoplasma hyorhinis, a liquid medium (pH 7.8) for isolation of Mycoplasma hyorhinis [Journal of the Japan Veterinary Medical Association,32, 34-38 (1979)] was used.
as §5, §6, §7

| SMILES | MIC (M. salivarium PG20) | minimal effective concentration (mycoplasma [1]; both species) | activity of eliminating mycoplasma contamination (mycoplasma [1]; in words) | effective concentration relative to compound A (mycoplasma [1]; in words) | MIC (M. pnumoniae Mac) | MIC compared with MMC (mycoplasma [2]; Table 2) | mode of action at the MIC (mycoplasma [2]; Table 2) | MIC (M. hyorhinis BST7) | elimination of mycoplasma and re-growth after removal (mycoplasma [1]; 12.5 μg/ml, 4 days, then drug removed, in words) | elimination of mycoplasma and re-growth after removal (mycoplasma [1]; 0.2 μg/ml, both species, in words) | anti-mycoplasmal activity compared with control compounds (mycoplasma [2]; Table 2) | mycoplasmacidal activity, overall (mycoplasma [2]; summary) |
| --- | --- | --- | --- | --- | --- | --- | --- | --- | --- | --- | --- | --- |
| CC1CN(c2c(F)c(N)c3c(=O)c(C(=O)O)cn(C4CC4)c3c2F)CCN1 (stereo not shown) [Compound 1] | 0.2 µg/mL (≈ 0.529 µM) | 0.39 µg/mL | also showed the activity of eliminating mycoplasma contamination | twice that of compound A | 0.025 µg/mL (≈ 0.0661 µM) | identical with their MMC values | act mycoplasmacidally at the MICs | 0.2 µg/mL (≈ 0.529 µM) |  |  |  |  |
| CN(C)c1ccc(O)c2c1C[C@H]1C[C@H]3[C@H](N(C)C)C(O)=C(C(N)=O)C(=O)[C@@]3(O)C(O)=C1C2=O [Compound 3, minocycline] | 0.1 µg/mL (≈ 0.219 µM) |  |  |  | 0.78 µg/mL (≈ 1.7 µM) |  | acts bacteriostatically, and not mycoplasmacidally, at its MIC | 0.1 µg/mL (≈ 0.219 µM) | the cells were mycoplasma-negative after 4 days of cultivation, but when the chemical was removed thereafter, re-growth of mycoplasma was observed |  |  |  |
| NCC1CN(c2c(F)c(N)c3c(=O)c(C(=O)O)cn(C4CC4)c3c2F)CCO1 (stereo not shown) [Compound A, 5-amino-7-(2-aminomethylmorpholino)-1-cyclopropyl-6,8-difluoro-1,4-dihydro-4-oxoquinoline-3-carboxylic acid] | 0.1 µg/mL (≈ 0.254 µM) | 0.2 µg/mL |  |  | 0.0125 µg/mL (≈ 0.0317 µM) | identical with their MMC values | act mycoplasmacidally at the MICs | 0.05 µg/mL (≈ 0.127 µM) |  | gave a mycoplasma negative in 4 days from the start of cultivation, and when thereafter subcultivation was performed in the absence of the compound A, no re-growth of mycoplasmas were noted | better than those of the control compounds | excellent mycoplasmacidal activity |
